The values that follow come from patent US20100061982A1, “3-SUBSTITUTED-1H-INDOLE, 3-SUBSTITUTED-1H-PYRROLO[2,3-B]PYRIDINE AND 3-SUBSTITUTED-1H-PYRROLO[3,2-B]PYRIDINE COMPOUNDS, THEIR USE AS MTOR KINASE AND PI3 KINASE INHIBITORS, AND THEIR SYNTHESES” (priority 2008, published 2010).

In brackets after ≈: the same amount, converted by molar mass. Like-named read-outs stand apart in the source and are kept apart here.

One data set is described as follows: Solubility pH 7.4. The note with it: pH 7.4, aqueous buffer.
A short description of data set [1]: Microsome Stability (15 min), rat. Format: in vitro ADME. Conditions: microsomes, Phase I (NADPH), read-out: Microsome Stability (15 min) T ½ Phase I rat.
The nature of data set [2]: PAMPA permeability pH 7.4.
The target of a further data set is PI3K alpha (Homo sapiens, UniProt P42336). Briefly: PI3K-alpha Fluorescence Polarization Assay. Format: biochemical.
Data set [3] in a line: Microsome Stability (15 min), human. Conditions: microsomes, Phase I (NADPH), read-out: Microsome Stability (15 min) T ½ Phase I human. It is filed as in vitro ADME.
Data set [4] is described as follows: Microsome Stability (15 min), nude mouse. Format: in vitro ADME. Conditions: microsomes, Phase I (NADPH), read-out: Microsome Stability (15 min) T ½ Phase I nude mouse.
The nature of data set [5]: Plasma Stability (37° C.), rat.
The nature of data set [6]: Buffer Stability (37° C.).

PI3K alpha, sequence (P42336 whole entry, species assumed): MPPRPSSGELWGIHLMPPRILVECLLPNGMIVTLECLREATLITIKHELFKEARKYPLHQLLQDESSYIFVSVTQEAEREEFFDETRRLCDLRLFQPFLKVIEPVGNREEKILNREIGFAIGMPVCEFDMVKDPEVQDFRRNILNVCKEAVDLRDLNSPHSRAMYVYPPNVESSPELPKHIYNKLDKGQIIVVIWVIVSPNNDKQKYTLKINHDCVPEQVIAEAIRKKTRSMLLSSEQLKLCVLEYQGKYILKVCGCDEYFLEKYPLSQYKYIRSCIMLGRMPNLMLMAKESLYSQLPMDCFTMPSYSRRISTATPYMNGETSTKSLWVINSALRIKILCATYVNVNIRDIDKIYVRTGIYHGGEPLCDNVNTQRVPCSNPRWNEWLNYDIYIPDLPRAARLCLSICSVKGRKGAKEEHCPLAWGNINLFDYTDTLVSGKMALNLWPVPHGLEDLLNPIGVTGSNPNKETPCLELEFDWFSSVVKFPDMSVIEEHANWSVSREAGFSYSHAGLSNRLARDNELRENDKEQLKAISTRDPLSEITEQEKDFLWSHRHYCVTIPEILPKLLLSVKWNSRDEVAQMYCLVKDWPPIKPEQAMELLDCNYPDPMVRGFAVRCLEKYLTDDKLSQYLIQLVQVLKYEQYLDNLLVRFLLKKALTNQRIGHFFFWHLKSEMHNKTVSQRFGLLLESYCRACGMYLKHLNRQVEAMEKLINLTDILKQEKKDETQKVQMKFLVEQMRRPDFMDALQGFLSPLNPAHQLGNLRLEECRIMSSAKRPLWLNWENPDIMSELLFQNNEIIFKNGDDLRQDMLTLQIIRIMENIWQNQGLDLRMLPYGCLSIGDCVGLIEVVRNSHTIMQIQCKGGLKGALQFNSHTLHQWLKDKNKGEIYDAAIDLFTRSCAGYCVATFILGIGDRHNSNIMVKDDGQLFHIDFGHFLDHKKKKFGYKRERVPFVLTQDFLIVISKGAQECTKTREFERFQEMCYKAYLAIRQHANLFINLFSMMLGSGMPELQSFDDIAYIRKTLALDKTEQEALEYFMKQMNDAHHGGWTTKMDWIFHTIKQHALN
PI3K alpha, sequence (P27986 whole entry partner, species assumed): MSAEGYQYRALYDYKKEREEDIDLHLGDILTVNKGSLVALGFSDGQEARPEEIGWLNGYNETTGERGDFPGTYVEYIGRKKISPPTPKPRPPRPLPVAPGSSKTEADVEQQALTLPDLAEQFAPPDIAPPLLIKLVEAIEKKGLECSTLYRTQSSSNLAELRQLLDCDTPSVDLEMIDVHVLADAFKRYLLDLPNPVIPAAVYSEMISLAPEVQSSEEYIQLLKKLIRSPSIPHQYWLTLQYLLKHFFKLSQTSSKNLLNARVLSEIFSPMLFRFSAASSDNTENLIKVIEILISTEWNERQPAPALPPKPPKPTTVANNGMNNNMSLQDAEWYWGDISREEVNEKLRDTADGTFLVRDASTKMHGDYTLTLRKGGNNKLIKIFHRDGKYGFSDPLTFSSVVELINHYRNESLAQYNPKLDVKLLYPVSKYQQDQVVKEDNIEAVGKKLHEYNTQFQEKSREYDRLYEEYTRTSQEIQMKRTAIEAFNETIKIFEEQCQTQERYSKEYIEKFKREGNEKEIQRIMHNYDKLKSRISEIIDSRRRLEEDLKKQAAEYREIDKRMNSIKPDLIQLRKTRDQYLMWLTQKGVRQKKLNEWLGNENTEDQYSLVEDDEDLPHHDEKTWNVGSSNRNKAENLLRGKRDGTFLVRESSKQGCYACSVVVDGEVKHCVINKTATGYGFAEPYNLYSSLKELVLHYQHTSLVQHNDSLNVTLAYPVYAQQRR

The solubility is the concentration that dissolves in the medium under given conditions. Read a low solubility as little dissolved substance. Turning to `COc1ccc2c(c1)c(/C=C1\Oc3cc(O)ccc3C1=O)cn2CCCN(C)C` [(2Z)-2-({1-[3-(dimethylamino)propyl]-5-methoxy-1H-indol-3-yl}methylene)-6-hydroxy-1-benzofuran-3(2H)-one], the solubility in the data set “Solubility pH 7.4” worked out at 53 µg/mL (≈ 135 µM). Besides, in data set [1], the half-life amounted to 12 min. For the same molecule, the “PAMPA Pe” value in data set [2] is 0 10e−6 cm/s.

In general, IC50 refers to the concentration that gives 50% inhibition. The molecule `COC(=O)Oc1cc(OC(=O)OC)c2c(c1)O/C(=C\c1cn(CCCN(C)C)c3ccc(OC)cc13)C2=O` [Example 13, (2Z)-2-({1-[3-(dimethylamino)propyl]-5-methoxy-1H-indol-3-yl}methylene)-3-oxo-2,3-dihydro-1-benzofuran-4,6-diyl dimethyl biscarbonate] came in with a solubility in “Solubility pH 7.4” of 43 µg/mL (≈ 82 µM). In data set [2], the “PAMPA Pe” value was 0.19 10e−6 cm/s. Further, the IC50 on PI3K alpha (read-out: PI3K alpha Mean IC50) came to 313 nM.

For `COc1ccc2c(c1)c(/C=C1\Oc3cc(OC(C)=O)cc(OC(C)=O)c3C1=O)cn2CCCN(C)C` [Example 15, (2Z)-2-({1-[3-(dimethylamino)propyl]-5-methoxy-1H-indol-3-yl}methylene)-3-oxo-2,3-dihydro-1-benzofuran-4,6-diyl diacetate], the solubility in the data set “Solubility pH 7.4” amounted to 49 µg/mL. In addition, the “PAMPA Pe” value in data set [2] is 0.24 10e−6 cm/s. For the same molecule, the IC50 at PI3K alpha (read-out: PI3K alpha Mean IC50) is 82 nM.

`COc1ccc2[nH]c(-c3ccccc3)c(/C=C3\Oc4cc(OC(=O)N(c5ccccc5)c5ccccc5)ccc4C3=O)c2c1` [Example 20, (2Z)-2-[(5-methoxy-2-phenyl-1H-indol-3-yl)methylene]-3-oxo-2,3-dihydro-1-benzofuran-6-yl diphenylcarbamate]: the half-life in data set [1], in data set [3] and in data set [4] was greater than 30 min throughout. Besides, the “PAMPA Pe” value in data set [2] is “Undetected”. Moreover, the IC50 at PI3K alpha (read-out: PI3K alpha Mean IC50) was greater than 10000 nM. Also, in data set [5], the “Plasma Stability (37° C.) % Remaining (3-3.5 hours) rat” value is recorded as 91%. Also, the “Buffer Stability (37° C.) % Remaining (at 16-23 hours) SGF” value in data set [6] (SGF) is 100%. In addition, in data set [6] (SIF), the “Buffer Stability (37° C.) % Remaining (at 16-23 hours) SIF” value was found to be 100%. The “Buffer Stability (37° C.) % Remaining (at 16-23 hours) pH 1” value in data set [6] (pH 1) was 100%. Further, the “Buffer Stability (37° C.) % Remaining (at 16-23 hours) pH 4.5” value in data set [6] (pH 4.5) is on record as 100%. Further, the “Buffer Stability (37° C.) % Remaining (at 16-23 hours) pH 6.6” value in data set [6] (pH 6.6) is on record as 100%. In data set [6] (pH 7.4), the “Buffer Stability (37° C.) % Remaining (at 16-23 hours) pH 7.4” value is reported as 100%. In addition, the “Buffer Stability (37° C.) % Remaining (at 16-23 hours) pH 9” value in data set [6] (pH 9) is on record as 95%.

In turn, `COc1ccc2c(c1)c(/C=C1\Oc3cc(OC(=O)N(c4ccccc4)c4ccccc4)cc(OC(=O)N(c4ccccc4)c4ccccc4)c3C1=O)c(C)n2CCN1CCN(C)CC1` [Example 29, (2Z)-2-({5-methoxy-2-methyl-1-[2-(4-methylpiperazin-1-yl)ethyl]-1H-indol-3-yl}methylene)-3-oxo-2,3-dihydro-1-benzofuran-4,6-diyl bis(diphenylcarbamate)] displayed a solubility in “Solubility pH 7.4” of 5 µg/mL (≈ 5.85 µM). In addition, the “PAMPA Pe” value in data set [2] is on record as 0 10e−6 cm/s. In addition, the IC50 against PI3K alpha came to 1000 nM.

For the molecule `CCOC(=O)CNC(=O)Oc1cc(OC(=O)NCC(=O)OCC)c2c(c1)O/C(=C\c1cn(CCCN(C)C)c3ccc(OC)cc13)C2=O` [Example 35, diethyl 2,2′-[[(2Z)-2-({1-[3-(dimethylamino)propyl]-5-methoxy-1H-indol-3-yl}methylene)-3-oxo-2,3-dihydro-1-benzofuran-4,6-diyl]bis(oxycarbonylimino)]diacetate], the solubility in “Solubility pH 7.4” stood at 51 µg/mL (≈ 76.5 µM). Also, the “PAMPA Pe” value in data set [2] is reported as 0 10e−6 cm/s. Besides, on PI3K alpha, half-maximal inhibition (IC50) required 28 nM.
